Laboratory results published in patent US20060135773A1, “Trisubstituted nitrogen modulators of tyrosine phosphatases” (priority 2004, published 2006).

Legend:
PTP-1B = biological target: T1, PTP-1B (Homo sapiens, UniProt P18031); assay: pNPP tyrosine phosphatase inhibition assay, PTP-1B; format: biochemical; details: pNPP assay, PTP-1B; read-out: Activity Class (IC50 ranges)
T1 construct: PTP-1B (purified, 1 mg/mL) as a 1:250 dilution
T1 sequence (P18031 1-321 limits assumed): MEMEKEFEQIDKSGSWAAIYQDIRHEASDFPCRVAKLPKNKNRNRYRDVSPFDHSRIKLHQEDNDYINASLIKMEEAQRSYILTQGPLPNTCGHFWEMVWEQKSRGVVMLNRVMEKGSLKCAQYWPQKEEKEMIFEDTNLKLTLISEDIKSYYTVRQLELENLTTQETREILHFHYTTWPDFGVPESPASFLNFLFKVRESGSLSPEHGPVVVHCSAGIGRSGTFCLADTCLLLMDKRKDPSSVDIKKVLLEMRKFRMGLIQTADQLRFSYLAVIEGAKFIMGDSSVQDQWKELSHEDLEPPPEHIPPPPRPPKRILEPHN
Summary of the method: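 Test compounds were screened at two final levels, 31.3 and 10 µM, against 4 µg/mL purified PTP-1B. The substrate was 10 mM p-nitrophenyl phosphate, with incubation for 10 min at 30°C before a K2CO3 quench. Activity was taken from A405.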

Row | SMILES | IC50 (PTP-1B) [nM] | melting point
1 | O=P(O)(O)C(F)(F)c1ccc(CN(Cc2ccc(C(F)(F)P(=O)(O)O)cc2)S(=O)(=O)CCc2ccccc2)cc1 [Compound 9, [(4-{[[4-(Difluoro-phosphono-methyl)-benzyl]-(2-phenyl-ethanesulfonyl)-amino]-methyl}-phenyl)-difluoro-methyl]-phosphonic acid] | 250 to 499 | 181 to 183 °C
2 | O=C(OCc1ccccc1)N(Cc1ccc(C(F)(F)P(=O)(O)O)cc1)Cc1ccc(C(F)(F)P(=O)(O)O)cc1 [Compound 17, {[4-({Benzyloxycarbonyl-[4-(difluoro-phosphono-methyl)-benzyl]-amino}-methyl)-phenyl]-difluoro-methyl}-phosphonic acid] | 2500 to 25000 | 106 to 108 °C
3 | COc1ccccc1S(=O)(=O)N(Cc1ccc(NC(=O)C(=O)O)cc1)Cc1ccc(NC(=O)C(=O)O)cc1 [Compound 57, N-[4-({(2-Methoxy-benzenesulfonyl)-[4-(oxalyl-amino)-benzyl]-amino}-methyl)-phenyl]-oxalamic acid] | > 25000 | 187 to 189 °C (dec.)
4 | O=P(O)(O)C(F)(F)c1ccc(CN(Cc2ccc(C(F)(F)P(=O)(O)O)c(Br)c2)S(=O)(=O)c2ccccc2)cc1 [Compound 38, {[4-({Benzenesulfonyl-[4-(difluoro-phosphono-methyl)-benzyl]-amino}-methyl)-2-bromo-phenyl]-difluoro-methyl}-phosphonic acid] | < 99 | 
5 | CCCc1cc(-c2ccc(CN(Cc3ccc(C(F)(F)P(=O)(O)O)c(Cl)c3)S(=O)(=O)c3ccccc3OC)cc2)cc(C(=O)OC)c1O [Compound 160, 4′-{[[3-Chloro-4-(difluoro-phosphono-methyl)-benzyl]-(2-methoxy-benzenesulfonyl)-amino]-methyl}-4-hydroxy-5-propyl-biphenyl-3-carboxylic acid methyl ester] | 250 to 499 | 
6 | COc1ccccc1S(=O)(=O)N(Cc1ccc(Cl)c(Cl)c1)Cc1ccc(C(F)(F)P(=O)(O)O)c(Cl)c1 [Compound 146, [(2-Chloro-4-{[(3,4-dichloro-benzyl)-(2-methoxy-benzenesulfonyl)-amino]-methyl}-phenyl)-difluoro-methyl]-phosphonic acid] | 250 to 499 | 
7 | COc1ccccc1S(=O)(=O)N(Cc1cccc(-c2ccc(S(C)(=O)=O)cc2)c1)Cc1ccc(C(F)(F)P(=O)(O)O)c(Cl)c1 [Compound 143, [(2-Chloro-4-{[(4′-methanesulfonyl-biphenyl-3-ylmethyl)-(2-methoxy-benzenesulfonyl)-amino]-methyl}-phenyl)-difluoro-methyl]-phosphonic acid] | 250 to 499 | 

The remaining lines, values ahead:

Row | IC50 (PTP-1B) [nM] | melting point | SMILES
8 | > 25000 | 124 to 127 °C | O=C(NCc1ccccc1)N(Cc1ccc(C(F)(F)P(=O)(O)O)cc1)Cc1ccc(C(F)(F)P(=O)(O)O)cc1 [Compound 13, [(4-{3-Benzyl-1-[4-(difluoro-phosphono-methyl)-benzyl]-ureidomethyl}-phenyl)-difluoro-methyl]-phosphonic acid]
9 | > 25000 |  | O=C(O)c1ccc(CN(Cc2ccc(C(=O)O)cc2)S(=O)(=O)c2ccccc2)cc1 [Compound 78, 4-([Benzenesulfonyl-(4-carboxybenzyl)-amino]-methyl)-benzoic acid]
10 | > 25000 |  | O=S(=O)(c1ccccc1Cl)N(Cc1ccc(NS(=O)(=O)C(F)(F)F)cc1)Cc1ccc(Cl)c(Cl)c1 [Compound 87, 2-Chloro-N-(3,4-dichloro-benzyl)-N-(4-trifluoromethanesulfonylamino-benzyl)-benzenesulfonamide]
11 | 250 to 499 |  | COC(=O)c1cccc(-c2ccc(CN(Cc3ccc(C(F)(F)P(=O)(O)O)c(Cl)c3)S(=O)(=O)c3ccccc3OC)cc2)c1 [Compound 145, 4′-{[[3-Chloro-4-(difluoro-phosphono-methyl)-benzyl]-(2-methoxy-benzenesulfonyl)-amino]-methyl}-biphenyl-3-carboxylic acid methyl ester]
